# Laboratory results as given in patent publication US8404677B2, “Kinase inhibitors” (Genosco, priority 2009, dated 2013).
# Experiments:
# HL-60(TB) = experiment: cells; assay type: cell-based; details: HL-60(TB) (Leukemia)
# U251 = experiment: cells; assay type: cell-based; details: U251 (CNS Cancer)
# NCI-H460 = experiment: cells; assay type: cell-based; details: NCI-H460 (NSCLC)
# MDA-MB-231/ATCC = experiment: cells; assay type: cell-based; details: MDA-MB-231/ATCC (Breast Cancer)
# MALME-3M = experiment: cells; assay type: cell-based; details: MALME-3M (Melanoma)
# HOP-92 = experiment: cells; assay type: cell-based; details: HOP-92 (NSCLC)
# BT-549 = experiment: cells; assay type: cell-based; details: BT-549 (Breast Cancer)
# human PIM1 = molecular target: T1, human PIM1 (Homo sapiens, UniProt P11309); experiment: Inhibition of enzymatic kinase activity (LANCE Ulight); assay type: biochemical; details: at 1 μM concentration; read-out: PIM1 percentage inhibition
# T1 construct: Purified full-length human SYK, ZAP70, PIM1, PYK2; purchased Carna Biosciences
# T1 sequence (P11309 whole entry): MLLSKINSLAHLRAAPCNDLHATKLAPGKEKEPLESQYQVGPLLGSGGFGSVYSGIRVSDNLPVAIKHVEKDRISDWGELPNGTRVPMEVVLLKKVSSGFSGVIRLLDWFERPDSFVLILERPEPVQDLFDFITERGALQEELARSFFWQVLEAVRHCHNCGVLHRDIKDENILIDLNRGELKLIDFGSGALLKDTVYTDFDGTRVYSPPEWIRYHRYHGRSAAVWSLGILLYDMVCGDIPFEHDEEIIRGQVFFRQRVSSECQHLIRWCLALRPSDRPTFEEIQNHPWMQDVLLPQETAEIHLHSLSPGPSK
# Description: Inhibition of Enzymatic SYK, ZAP70, PYK2, FAK, PIM1, RET, FLT3, JAK2 and LRRK2 Kinase Activity
# Compounds of the invention were initially diluted to 10 mM in 100% DMSO (CALBIOCHEM™) for storage and made into kinase buffer solution to create a compound concentration ranging from 1 uM and 10 uM. Serial dilutions of compounds of the invention were dispensed into a 96-well plate (GREINER BIOSCIENCES™) at 6 μL each. Purified full-length human SYK, ZAP70, PIM1, PYK2 and truncated human FAK, RET, FLT3, JAK2, and LRRK2 (CARNA BIOSCIENCES™) were diluted in kinase buffer and added to the compound solutions and pre-incubated for 30 minutes at room temperature (1 hour for PYK2). […] The reaction mixture was incubated for 1 hour (2 hours for PYK2). Following the incubation, the stop solution made with EDTA, water, and Lance detection buffer ([…]™) was added (12 μL each) to stop phosphorylation. […] Substrate phosphorylation was a function of the 665 nm emission measured following the addition of the detection solution and 50 minutes of incubation.
# SYK = SYK (Homo sapiens, UniProt P43405); experiment: In vitro kinase inhibition, Ambit Biosciences panel; assay type: binding; set-up: purchased Ambit Biosciences; details: lower numbers indicate stronger activities
# Description: (§1) Up to 518 different kinases have been identified in humans. They act on small molecules such as lipids, carbohydrates, amino acids, and nucleotides. To determine the scope of inhibitory effects of a representative compound of Formula (I) on known kinases, Compound 6 was tested against 104 commercially available kinases (Ambit Biosciences™) in vitro. 104 kinases included ABL1(E255K)-phosphorylated, ABL1(T315I)-phosphorylated, ABL1-phosphorylated, ACVR1B, ADCK3, AKT1, AKT2, ALK, AURKA, AURKB, AXL, BMPR2, BRAF, BRAF(V600E), BTK, CDK11, CDK2, CDK3, CDK7, CDK9, CHEK1, CSF1R, CSNK1D, CSNK1G2, DCAMKL1, DYRK1B, EGFR, EGFR(L858R), EPHA2, ERBB2, ERBB4, ERK1, FAK, FGFR2, FGFR3, FLT1, FLT3, FLT4, GSK3B, IGF1R, IKK-α, IKK-β, INSR, JAK2(JH1domain-catalytic), JAK3(JH1domain-catalytic), JNK1, JNK2, JNK3, KIT, KIT(D816V), KIT(V559D,T670I), LKB1, LRRK2, LRRK2(G2019S), MAP3K4, MAPKAPK2, MARK3, MEK1, MEK2, MET, MKNK1, MKNK2, MLK1, MTOR, p38-alpha, p38-beta, PAK1, PAK2, PAK4, PCTK1, PDGFRA, PDGFRB, PDPK1, PIK3C2B, PIK3CA, PIK3CG, PIM1, PIM2, PIM3, PKAC-alpha, PLK1, PLK3, PLK4, PRKCE, PYK2, RAFT, RET, RIOK2, ROCK2, RSK2, SNARK, SRC, SRPK3, SYK, TAK1, TGFBR1, TIE2, TRKA, TSSK1B, TYK2(JH1domain-catalytic), ULK2, VEGFR2, YANK3 and ZAP70.
# (§2) Inhibition activity of Compound 6 was reported as percent control where lower numbers indicate stronger activities. […]
# PYK2 = PYK2 (Homo sapiens, UniProt Q14289); experiment: as above; assay type: binding; set-up: purchased Ambit Biosciences; details: lower numbers indicate stronger activities
# PYK2, sequence (Q14289 whole entry): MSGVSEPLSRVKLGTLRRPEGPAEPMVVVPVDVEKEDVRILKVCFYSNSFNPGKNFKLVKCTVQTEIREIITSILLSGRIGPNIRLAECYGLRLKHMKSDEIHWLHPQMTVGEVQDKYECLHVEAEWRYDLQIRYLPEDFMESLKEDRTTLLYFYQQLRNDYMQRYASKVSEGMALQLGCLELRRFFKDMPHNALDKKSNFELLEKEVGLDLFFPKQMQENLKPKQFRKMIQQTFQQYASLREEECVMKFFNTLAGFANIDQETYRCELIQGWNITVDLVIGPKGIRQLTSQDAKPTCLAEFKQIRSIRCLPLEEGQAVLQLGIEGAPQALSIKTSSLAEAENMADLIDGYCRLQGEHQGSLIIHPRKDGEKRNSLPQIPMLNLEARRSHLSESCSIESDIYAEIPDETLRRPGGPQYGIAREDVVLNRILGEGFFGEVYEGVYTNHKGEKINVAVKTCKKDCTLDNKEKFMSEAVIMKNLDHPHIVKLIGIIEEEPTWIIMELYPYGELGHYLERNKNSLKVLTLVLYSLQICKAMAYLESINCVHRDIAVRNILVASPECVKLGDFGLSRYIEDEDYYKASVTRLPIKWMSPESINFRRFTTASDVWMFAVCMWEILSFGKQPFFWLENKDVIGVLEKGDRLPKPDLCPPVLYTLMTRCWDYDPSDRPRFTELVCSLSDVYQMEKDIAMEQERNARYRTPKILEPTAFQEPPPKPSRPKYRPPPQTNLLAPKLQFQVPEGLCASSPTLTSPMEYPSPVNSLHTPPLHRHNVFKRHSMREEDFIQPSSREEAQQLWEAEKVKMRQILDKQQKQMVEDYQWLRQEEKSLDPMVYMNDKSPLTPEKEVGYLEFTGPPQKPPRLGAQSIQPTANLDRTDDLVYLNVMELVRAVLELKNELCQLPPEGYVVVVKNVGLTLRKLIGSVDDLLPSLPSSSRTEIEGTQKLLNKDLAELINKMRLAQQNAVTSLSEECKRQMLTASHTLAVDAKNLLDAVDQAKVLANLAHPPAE
# Description: as §1, §2
# SNB-19 = experiment: cells; assay type: cell-based; details: SNB-19 (CNS Cancer)
# RPMI-8226 = experiment: cells; assay type: cell-based; details: RPMI-8226 (Leukemia)
# K-562 = experiment: cells; assay type: cell-based; details: K-562 (Leukemia)
# SR = experiment: cells; assay type: cell-based; details: SR (Leukemia)
# [1] = Homo sapiens, read-out: LC50 (the source's name)
smiles,measurement,setting,value
"O=c1[nH]ccc2nc(N3CCC(O)CC3)nc(Nc3cccc(C(F)(F)F)c3)c12 [Compound 6, 2-(4-hydroxypiperidin-1-yl)-4-(3-(trifluoromethyl)phenylamino)pyrido[4,3-d]pyrimidine-5(6H)-one]",TGI,HL-60(TB),5.01 µM
same,GI50,HL-60(TB); Homo sapiens,0.871 µM
same,IC50,HL-60(TB); Homo sapiens,1.86 µM
same,CC50,HL-60(TB); [1],100 µM
same,GI50,"U251; Homo sapiens, U-251",6.17 µM
same,IC50,"U251; Homo sapiens, U-251",11.7 µM
same,CC50,"U251; Homo sapiens, U-251, read-out: LC50 (the source's name)",100 µM
same,TGI,U251,100 µM
same,GI50,NCI-H460; Homo sapiens,1.62 µM
same,IC50,NCI-H460; Homo sapiens,2.4 µM
same,CC50,NCI-H460; [1],64.6 µM
same,TGI,NCI-H460,15.1 µM
same,GI50,MDA-MB-231/ATCC; Homo sapiens,12.3 µM
same,IC50,MDA-MB-231/ATCC; Homo sapiens,≥ 100 µM
same,CC50,MDA-MB-231/ATCC; [1],100 µM
same,TGI,MDA-MB-231/ATCC,100 µM
same,GI50,MALME-3M; Homo sapiens,2.63 µM
same,IC50,MALME-3M; Homo sapiens,9.77 µM
same,CC50,MALME-3M; [1],32.4 µM
same,TGI,MALME-3M,7.94 µM
same,TGI,HOP-92,100 µM
same,GI50,HOP-92; Homo sapiens,100 µM
same,IC50,HOP-92; Homo sapiens,≥ 100 µM
same,CC50,HOP-92; [1],100 µM
same,TGI,BT-549,4.37 µM
same,GI50,BT-549; Homo sapiens,1.58 µM
same,IC50,BT-549; Homo sapiens,4.57 µM
same,CC50,BT-549; [1],14.1 µM
same,inhibition at 1 µM,human PIM1,32%
same,% inhibition (reported as percent control),SYK,8.4%
same,% inhibition (reported as percent control),PYK2,32%
same,GI50,SNB-19; Homo sapiens,18.2 µM
same,IC50,SNB-19; Homo sapiens,64.6 µM
same,CC50,SNB-19; [1],100 µM
same,TGI,SNB-19,100 µM
same,GI50,RPMI-8226; Homo sapiens,2.95 µM
same,IC50,RPMI-8226; Homo sapiens,5.5 µM
same,CC50,RPMI-8226; [1],100 µM
same,TGI,RPMI-8226,91.2 µM
same,GI50,"K-562; Homo sapiens, K562",3.16 µM
same,IC50,"K-562; Homo sapiens, K562",3.98 µM
same,CC50,"K-562; Homo sapiens, K562, read-out: LC50 (the source's name)",100 µM
same,TGI,K-562,100 µM
same,GI50,SR; Homo sapiens,0.708 µM
same,IC50,SR; Homo sapiens,2.51 µM
same,CC50,SR; [1],100 µM
same,TGI,SR,26.9 µM
